Experimental data taken from the supplement of paper PMC10883282.
± gives the standard deviation of the averaged measurements.

Experiments:
Test in all cases: relative viability vs DMSO control (72 h) (fraction); higher = more viable cells
[1] = test system: SYO-1
Outline: (§1)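 Plates held 72 h at 37 °C and 5% CO2 contained sarcoma cell lines seeded in 384-well format to reach 80–90% confluence, plus 2.5 µl of serially diluted compound added after 24 h. Source plate concentrations ran from 10 mM to 0.0002 mM, with 0.1% DMSO as vehicle and a 5 µM positive control. Percent growth from ATPLite readings, averaged over up to triplicate wells, gave relative viability. Values were rescaled with 1 as full and 0 as none.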

[2] = test system: SW872
Outline: as §1

[3] = test system: KHOS-NP
Outline: as §1

[4] = test system: SW684
Outline: as §1

[5] = test system: HT1080
Outline: as §1

[6] = test system: G401
Outline: as §1

[7] = test system: SK-LMS-1
Outline: as §1

[8] = test system: VA-ES-BJ
Outline: as §1

[9] = test system: HS729
Outline: as §1

[10] = test system: A204
Outline: as §1

[11] = test system: SW1353
Outline: as §1

[12] = test system: MES-SA
Outline: as §1

## C#Cc1cccc(Nc2ncnc3cc4c(cc23)OCCOCCOCCO4)c1 [Icotinib]
[1]; 0.00017 µM
  relative viability: 1.01 ± 0.062
[1]; 0.00051 µM
  relative viability: 1.03 ± 0.05
[1]; 0.00152 µM
  relative viability: 1.01 ± 0.015
[1]; 0.00457 µM
  relative viability: 0.968 ± 0.048
[1]; 0.01372 µM
  relative viability: 0.989 ± 0.031
[1]; 0.04115 µM
  relative viability: 0.979 ± 0.03
[1]; 0.1235 µM
  relative viability: 0.982 ± 0.013
[1]; 0.3704 µM
  relative viability: 0.98 ± 0.031
[1]; 1.111 µM
  relative viability: 0.966 ± 0.041
[1]; 3.333 µM
  relative viability: 0.892 ± 0.07
[1]; 10 µM
  relative viability: 0.855 ± 0.021
[2]; 0.00017 µM
  relative viability: 1.14 ± 0.058
[2]; 0.00051 µM
  relative viability: 1.14 ± 0.041
[2]; 0.00152 µM
  relative viability: 1.11 ± 0.046
[2]; 0.00457 µM
  relative viability: 1.108 ± 0.011
[2]; 0.01372 µM
  relative viability: 1.11 ± 0.059
[2]; 0.04115 µM
  relative viability: 1.09 ± 0.059
[2]; 0.1235 µM
  relative viability: 1.08 ± 0.067
[2]; 0.3704 µM
  relative viability: 1.07 ± 0.047
[2]; 1.111 µM
  relative viability: 1.06 ± 0.041
[2]; 3.333 µM
  relative viability: 1.04 ± 0.06
[2]; 10 µM
  relative viability: 1.03 ± 0.064
[3]; 0.00017 µM
  relative viability: 1.083 ± 0.0088
[3]; 0.00051 µM
  relative viability: 1.09 ± 0.018
[3]; 0.00152 µM
  relative viability: 1.08 ± 0.017
[3]; 0.00457 µM
  relative viability: 1.09 ± 0.019
[3]; 0.01372 µM
  relative viability: 1.09 ± 0.013
[3]; 0.04115 µM
  relative viability: 1.09 ± 0.018
[3]; 0.1235 µM
  relative viability: 1.08 ± 0.0075
[3]; 0.3704 µM
  relative viability: 1.09 ± 0.015
[3]; 1.111 µM
  relative viability: 1.096 ± 0.0079
[3]; 3.333 µM
  relative viability: 1.08 ± 0.011
[3]; 10 µM
  relative viability: 1.07 ± 0.025
[4]; 0.00017 µM
  relative viability: 1.172 ± 0.0059
[4]; 0.00051 µM
  relative viability: 1.18 ± 0.053
[4]; 0.00152 µM
  relative viability: 1.2 ± 0.04
[4]; 0.00457 µM
  relative viability: 1.19 ± 0.052
[4]; 0.01372 µM
  relative viability: 1.2 ± 0.064
[4]; 0.04115 µM
  relative viability: 1.18 ± 0.031
[4]; 0.1235 µM
  relative viability: 1.18 ± 0.091
[4]; 0.3704 µM
  relative viability: 1.18 ± 0.066
[4]; 1.111 µM
  relative viability: 1.17 ± 0.043
[4]; 3.333 µM
  relative viability: 1.16 ± 0.026
[4]; 10 µM
  relative viability: 1.13 ± 0.05
[5]; 0.00017 µM
  relative viability: 1.08 ± 0.031
[5]; 0.00051 µM
  relative viability: 1.11 ± 0.014
[5]; 0.00152 µM
  relative viability: 1.09 ± 0.022
[5]; 0.00457 µM
  relative viability: 1.1 ± 0.022
[5]; 0.01372 µM
  relative viability: 1.11 ± 0.064
[5]; 0.04115 µM
  relative viability: 1.08 ± 0.037
[5]; 0.1235 µM
  relative viability: 1.1 ± 0.029
[5]; 0.3704 µM
  relative viability: 1.11 ± 0.014
[5]; 1.111 µM
  relative viability: 1.069 ± 0.0085
[5]; 3.333 µM
  relative viability: 1.08 ± 0.012
[5]; 10 µM
  relative viability: 1.06 ± 0.014
[6]; 0.00017 µM
  relative viability: 1.04 ± 0.026
[6]; 0.00051 µM
  relative viability: 1.05 ± 0.014
[6]; 0.00152 µM
  relative viability: 1.04 ± 0.015
[6]; 0.00457 µM
  relative viability: 1.06 ± 0.024
[6]; 0.01372 µM
  relative viability: 1.05 ± 0.02
[6]; 0.04115 µM
  relative viability: 1.05 ± 0.04
[6]; 0.1235 µM
  relative viability: 1.02 ± 0.012
[6]; 0.3704 µM
  relative viability: 1.04 ± 0.03
[6]; 1.111 µM
  relative viability: 1.06 ± 0.019
[6]; 3.333 µM
  relative viability: 1.03 ± 0.028
[6]; 10 µM
  relative viability: 1.02 ± 0.046
[7]; 0.00017 µM
  relative viability: 1.08 ± 0.014
[7]; 0.00051 µM
  relative viability: 1.05 ± 0.044
[7]; 0.00152 µM
  relative viability: 1.07 ± 0.012
[7]; 0.00457 µM
  relative viability: 1.07 ± 0.032
[7]; 0.01372 µM
  relative viability: 1.07 ± 0.024
[7]; 0.04115 µM
  relative viability: 1.06 ± 0.075
[7]; 0.1235 µM
  relative viability: 1.04 ± 0.049
[7]; 0.3704 µM
  relative viability: 1.09 ± 0.081
[7]; 1.111 µM
  relative viability: 1.05 ± 0.051
[7]; 3.333 µM
  relative viability: 1.033 ± 0.0072
[7]; 10 µM
  relative viability: 0.998 ± 0.076
[8]; 0.00017 µM
  relative viability: 1.09 ± 0.038
[8]; 0.00051 µM
  relative viability: 1.1 ± 0.076
[8]; 0.00152 µM
  relative viability: 1.1 ± 0.075
[8]; 0.00457 µM
  relative viability: 1.06 ± 0.03
[8]; 0.01372 µM
  relative viability: 1.08 ± 0.07
[8]; 0.04115 µM
  relative viability: 1.07 ± 0.011
[8]; 0.1235 µM
  relative viability: 1.08 ± 0.047
[8]; 0.3704 µM
  relative viability: 1.08 ± 0.038
[8]; 1.111 µM
  relative viability: 1.05 ± 0.0098
[8]; 3.333 µM
  relative viability: 1.04 ± 0.025
[8]; 10 µM
  relative viability: 1.01 ± 0.036
[9]; 0.00017 µM
  relative viability: 1.08 ± 0.04
[9]; 0.00051 µM
  relative viability: 1.091 ± 0.003
[9]; 0.00152 µM
  relative viability: 1.01 ± 0.041
[9]; 0.00457 µM
  relative viability: 1 ± 0.043
[9]; 0.01372 µM
  relative viability: 0.99 ± 0.05
[9]; 0.04115 µM
  relative viability: 0.99 ± 0.077
[9]; 0.1235 µM
  relative viability: 0.97 ± 0.016
[9]; 0.3704 µM
  relative viability: 0.971 ± 0.039
[9]; 1.111 µM
  relative viability: 0.957 ± 0.05
[9]; 3.333 µM
  relative viability: 0.892 ± 0.022
[9]; 10 µM
  relative viability: 0.8227 ± 0.0041
[10]; 0.00017 µM
  relative viability: 1.07 ± 0.086
[10]; 0.00051 µM
  relative viability: 1.08 ± 0.035
[10]; 0.00152 µM
  relative viability: 1.11 ± 0.051
[10]; 0.00457 µM
  relative viability: 1.13 ± 0.024
[10]; 0.01372 µM
  relative viability: 1.071 ± 0.0034
[10]; 0.04115 µM
  relative viability: 1.12 ± 0.038
[10]; 0.1235 µM
  relative viability: 1.09 ± 0.078
[10]; 0.3704 µM
  relative viability: 1.07 ± 0.063
[10]; 1.111 µM
  relative viability: 0.967 ± 0.024
[10]; 3.333 µM
  relative viability: 0.947 ± 0.039
[10]; 10 µM
  relative viability: 0.877 ± 0.047
[11]; 0.00017 µM
  relative viability: 1.06 ± 0.025
[11]; 0.00051 µM
  relative viability: 1.04 ± 0.016
[11]; 0.00152 µM
  relative viability: 1.03 ± 0.019
[11]; 0.00457 µM
  relative viability: 1.07 ± 0.044
[11]; 0.01372 µM
  relative viability: 1.045 ± 0.0071
[11]; 0.04115 µM
  relative viability: 1.01 ± 0.043
[11]; 0.1235 µM
  relative viability: 1.01 ± 0.038
[11]; 0.3704 µM
  relative viability: 0.976 ± 0.022
[11]; 1.111 µM
  relative viability: 0.952 ± 0.015
[11]; 3.333 µM
  relative viability: 0.914 ± 0.031
[11]; 10 µM
  relative viability: 0.847 ± 0.033
[12]; 0.00017 µM
  relative viability: 0.972 ± 0.021
[12]; 0.00051 µM
  relative viability: 0.945 ± 0.032
[12]; 0.00152 µM
  relative viability: 0.958 ± 0.014
[12]; 0.00457 µM
  relative viability: 0.937 ± 0.05
[12]; 0.01372 µM
  relative viability: 0.936 ± 0.02
[12]; 0.04115 µM
  relative viability: 0.952 ± 0.033
[12]; 0.1235 µM
  relative viability: 0.952 ± 0.024
[12]; 0.3704 µM
  relative viability: 0.922 ± 0.024
[12]; 1.111 µM
  relative viability: 0.912 ± 0.027
[12]; 3.333 µM
  relative viability: 0.869 ± 0.036
[12]; 10 µM
  relative viability: 0.8 ± 0.038
